Data from patent publication US8722849B2, “Polypeptides” (Novo Nordisk A/S, priority 2011, dated 2014).
Where two headings read alike, the source gives them in different places. Starred links: 1 amine or outer side, 2 acyl side, 3 side chain; linkers in the order of their positions; H or OH if unused. Positions of bridges follow the written chain, without caps; N, C: chain ends. Residues, ends and D or L forms follow the SMILES beside them. *: point of attachment. C18 diacid = O=C(O)CCCCCCCCCCCCCCCCC(=O)*; γGlu = O=C(O)[C@H](CCC(=O)[*:2])N[*:1]

Columns and labels:
[1] = target: T1, rat amylin 3(a) receptor (rat calcitonin(a) receptor + rat RAMP3) (Rattus norvegicus, UniProt P32214+Q9JJ73); test: Assay (II)b functional cAMP FlashPlate assay, rat amylin receptor; assay type: cell-based; settings: Table 11
T1 construct: expressed in transfected cells; host or cells: BHK tk'ts 13
T1 sequence (P32214 25-479 isoform P32214-2 limits assumed): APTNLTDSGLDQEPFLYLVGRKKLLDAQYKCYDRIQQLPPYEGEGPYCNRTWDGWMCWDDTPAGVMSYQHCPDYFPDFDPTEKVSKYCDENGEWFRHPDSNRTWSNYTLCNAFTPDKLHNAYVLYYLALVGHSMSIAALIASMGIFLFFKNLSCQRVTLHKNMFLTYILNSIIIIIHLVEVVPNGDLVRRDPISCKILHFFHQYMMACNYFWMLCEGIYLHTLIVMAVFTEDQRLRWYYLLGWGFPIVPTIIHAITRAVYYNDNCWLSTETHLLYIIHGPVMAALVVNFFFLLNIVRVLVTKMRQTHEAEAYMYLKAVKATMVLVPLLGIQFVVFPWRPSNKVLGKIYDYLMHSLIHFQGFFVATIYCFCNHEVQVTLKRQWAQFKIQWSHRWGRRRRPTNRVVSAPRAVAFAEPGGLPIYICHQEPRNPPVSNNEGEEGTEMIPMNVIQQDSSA
T1 sequence (Q9JJ73 23-147 partner): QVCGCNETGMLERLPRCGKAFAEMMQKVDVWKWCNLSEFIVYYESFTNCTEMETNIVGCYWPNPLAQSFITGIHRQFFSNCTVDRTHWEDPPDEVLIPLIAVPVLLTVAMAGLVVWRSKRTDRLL
Summary of the method: (§1)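 BHK tk'ts 13 cells transiently transfected with rat calcitonin(a) receptor, alone or with rat RAMP3 (amylin 3(a)), were stimulated 24 hours later with sample for 30 min in buffer containing IBMX. cAMP measured by competitive radioactive FlashPlate assay, scintillation read after 3 h detection incubation.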

[2] = target: T2, rat calcitonin (a) receptor (Rattus norvegicus, UniProt P32214); test: Assay (II)b functional cAMP FlashPlate assay, rat calcitonin receptor; assay type: cell-based; settings: Table 11; read-out: CTa receptor rat EC50
T2 construct: expressed in transfected cells; host or cells: BHK tk'ts 13
T2 sequence (P32214 25-479 isoform P32214-2 limits assumed): T1 sequence (P32214 25-479 isoform P32214-2 limits assumed)
Summary of the method: as §1

[3] = target: T3, human calcitonin receptor (Homo sapiens, UniProt P30988); test: Assay (II)a functional CRE-luciferase assay, human calcitonin receptor; assay type: cell-based; settings: Table 7; human calcitonin (CTa) receptor
T3 construct: expressed in transfected cells; host or cells: BHK570
T3 sequence (P30988 25-474): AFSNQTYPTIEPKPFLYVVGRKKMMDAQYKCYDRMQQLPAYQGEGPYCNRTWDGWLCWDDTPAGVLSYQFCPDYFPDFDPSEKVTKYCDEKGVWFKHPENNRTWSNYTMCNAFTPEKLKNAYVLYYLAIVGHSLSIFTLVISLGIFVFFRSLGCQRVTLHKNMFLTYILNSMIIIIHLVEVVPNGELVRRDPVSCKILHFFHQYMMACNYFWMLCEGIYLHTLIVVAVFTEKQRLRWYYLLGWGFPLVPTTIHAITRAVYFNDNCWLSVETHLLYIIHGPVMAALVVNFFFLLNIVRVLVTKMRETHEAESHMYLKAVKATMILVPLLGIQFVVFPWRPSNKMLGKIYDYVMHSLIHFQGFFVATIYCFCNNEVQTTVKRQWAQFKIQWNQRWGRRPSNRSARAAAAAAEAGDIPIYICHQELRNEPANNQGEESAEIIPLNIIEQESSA

[4] = target: T4, human amylin receptor (amylin 3(a) receptor: human calcitonin receptor + RAMP-3) (Homo sapiens, UniProt O60896+P30988); test: Assay (II)a functional CRE-luciferase assay, human amylin receptor; assay type: cell-based; settings: Table 2; BHK amylin 3(a)-receptor/CRE-luc cells
T4 construct: expressed in transfected cells; host or cells: BHK570
T4 sequence (P30988 25-474): T3 sequence (P30988 25-474)
T4 sequence (O60896 24-148 partner): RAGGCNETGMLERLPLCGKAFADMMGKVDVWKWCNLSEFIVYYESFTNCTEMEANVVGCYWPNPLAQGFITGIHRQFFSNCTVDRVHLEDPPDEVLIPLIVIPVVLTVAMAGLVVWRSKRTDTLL

[5] = Assay (IV) determination of solubility; assay type: physicochemical
Summary of the method: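 Polypeptide in water (~500 nmol/ml stock) was mixed 1:1 with 100 mM buffers from pH 3.0 to 8.0 (glycylglycine pH 3.0–5.0; bistrispropane pH 6.0–8.0). After 18 hours at room temperature, samples were centrifuged and the polypeptide remaining in solution was quantified by HPLC.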

EC50 [1]: 0.023 nM
EC50 [2]: 0.148 nM
EC50 [3]: 0.0605 nM
EC50 [4]: 0.056 nM
solubility at 18 h ([5]; bistrispropane buffer, pH 6, pH 6.0, read-out: Solubility pH 6.0): > 200 µM
solubility at 18 h ([5]; bistrispropane buffer, pH 6.5, pH 6.5, read-out: Solubility pH 6.5): > 200 µM
solubility at 18 h ([5]; bistrispropane buffer, pH 7, pH 7.0, 18 hours at room temperature, Table 3, read-out: Solubility pH 7.0): > 200 µM
solubility at 18 h ([5]; bistrispropane buffer, pH 7, pH 7.0, Table 8, read-out: Solubility pH 7.0): > 200 µM
solubility at 18 h ([5]; bistrispropane buffer, pH 7, pH 7.0, Table 9, read-out: Solubility pH 7.0): > 200 µM
solubility at 18 h ([5]; bistrispropane buffer, pH 7, pH 7.0, read-out: Solubility pH 7.0): > 200 µM
solubility at 18 h ([5]; bistrispropane buffer, pH 7.5, pH 7.5, Table 9, read-out: Solubility pH 7.5): > 200 µM
solubility at 18 h ([5]; bistrispropane buffer, pH 7.5, pH 7.5, read-out: Solubility pH 7.5): > 200 µM
solubility at 18 h ([5]; bistrispropane buffer, pH 8, pH 8.0, read-out: Solubility pH 8.0): > 200 µM
solubility at 18 h ([5]; glycylglycine buffer, pH 3, pH 3.0, read-out: Solubility pH 3.0): > 200 µM
solubility at 18 h ([5]; glycylglycine buffer, pH 4, pH 4.0, 18 hours at room temperature, Table 2, read-out: Solubility pH 4.0): > 200 µM
solubility at 18 h ([5]; glycylglycine buffer, pH 4, pH 4.0, read-out: Solubility pH 4.0): > 200 µM
solubility at 18 h ([5]; glycylglycine buffer, pH 5, pH 5.0, read-out: Solubility pH 5.0): > 200 µM
SMILES: CC[C@H](C)[C@H](NC(=O)[C@@H]1CCCN1C(=O)CNC(=O)[C@H](Cc1ccccc1)NC(=O)[C@H](CC(N)=O)NC(=O)[C@H](CC(N)=O)NC(=O)[C@H](CO)NC(=O)[C@H](CO)NC(=O)[C@H](Cc1c[nH]cn1)NC(=O)[C@H](Cc1c[nH]cn1)NC(=O)[C@H](CC(C)C)NC(=O)[C@H](Cc1ccccc1)NC(=O)[C@H](CCC(=O)O)NC(=O)[C@H](C)NC(=O)[C@H](CC(C)C)NC(=O)[C@H](CCCNC(=N)N)NC(=O)[C@H](CCC(N)=O)NC(=O)[C@@H](NC(=O)[C@H](C)NC(=O)[C@@H]1CSSC[C@H](NC(=O)[C@H](CCCCN)NC(=O)CC[C@H](NC(=O)CCCCCCCCCCCCCCCCC(=O)O)C(=O)O)C(=O)N[C@@H](CC(N)=O)C(=O)N[C@@H]([C@@H](C)O)C(=O)N[C@@H](C)C(=O)N[C@@H]([C@@H](C)O)C(=O)N1)[C@@H](C)O)C(=O)N[C@@H](CC(C)C)C(=O)N1CCC[C@H]1C(=O)N1CCC[C@H]1C(=O)N[C@H](C(=O)N[C@@H](CC(N)=O)C(=O)N[C@H](C(=O)NCC(=O)N[C@@H](CO)C(=O)N[C@@H](Cc1c[nH]cn1)C(=O)N[C@H](C(=O)N[C@@H](Cc1ccc(O)cc1)C(N)=O)[C@@H](C)O)C(C)C)[C@@H](C)O [Example 59, N-alpha-[(S)-4-Carboxy-4-(17-carboxyheptadecanoylamino)butyryl]-[Glu14,His17,His35]-pramlintide] ({C18 diacid-γGlu}-KCNTATCATQRLAEFLHHSSNNFGPILPPTNVGSHTY-NH2; disulfide 2-7 (inferred))
